Data set [1] has as its target Histamine H3 receptor (Cavia porcellus, UniProt Q9JI35). Nature of the data set: (§1) Compound was evaluated for its binding affinity against Histamine H3 receptor of guinea pig brain membrane.
The target of data set [2] is Histamine H3 receptor (Cavia porcellus) (UniProt Q9JI35). The data set is described as follows: Compound was evaluated for its inhibitory activity against Histamine H3 receptor of guinea pig brain membrane at a concentration of 1 ug/mL.
Data set [3] is described as follows: Pharmacokinetic parameter Cmax was measured after administration into rat at 10 mg/kg. The arrangement: dose 10 mg/kg. Format: ADME, organism-based. Conditions: in vivo.
Data set [4] can be described thus: Pharmacokinetic parameter area under curve (AUC) was measured after administration into rat at 10 mg/kg. The class given is ADME, organism-based. The arrangement: dose 10 mg/kg. Conditions: in vivo.
The test system of data set [5] is Cercopithecidae. Nature of the data set: Pharmacokinetic parameter area under curve (AUC) was measured after administration into monkey at 3 mg/kg. Conditions: in vivo.
A short description of data set [6]: Compound at a dose 3 mg/kg was administered to monkey and was evaluated for half life after administration into monkey at 3 mg/kg. The class given is ADME, organism-based. Conditions: cercopithecidae, in vivo.
The target in data set [7] is T1, Alpha-2A adrenergic receptor (Homo sapiens) (UniProt P08913).
T1 sequence (whole entry): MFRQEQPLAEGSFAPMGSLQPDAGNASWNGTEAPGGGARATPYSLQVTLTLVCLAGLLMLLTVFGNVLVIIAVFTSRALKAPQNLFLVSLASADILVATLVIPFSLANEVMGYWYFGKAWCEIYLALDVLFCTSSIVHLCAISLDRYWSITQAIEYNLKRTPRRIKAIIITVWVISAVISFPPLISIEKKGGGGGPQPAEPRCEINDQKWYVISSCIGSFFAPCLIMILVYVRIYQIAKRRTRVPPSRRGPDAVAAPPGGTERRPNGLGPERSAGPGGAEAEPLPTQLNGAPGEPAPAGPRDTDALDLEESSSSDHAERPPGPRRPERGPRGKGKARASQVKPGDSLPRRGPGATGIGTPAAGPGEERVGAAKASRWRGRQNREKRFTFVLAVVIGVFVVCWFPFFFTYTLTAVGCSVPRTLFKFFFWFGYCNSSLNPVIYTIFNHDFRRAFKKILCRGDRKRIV
Nature of the data set: Antagonistic activity towards Alpha-2A adrenergic receptor was calculated. The class given is functional.

A short description of data set [8]: Compound at a dose 10 mg/kg was administered to rat and was evaluated for bioavailability after administration into rat at 10 mg/kg. To be noted: in vivo, read-out: Bioavailabiility.
A short description of data set [9]: Pharmacokinetic parameter Cmax was measured after administration into monkey at 3 mg/kg. Format: ADME, organism-based. Conditions: cercopithecidae, in vivo, read-out: AUC. On the set-up: dose 3 mg/kg.
Data set [10] can be described thus: Antagonistic activity towards dopamine uptake was calculated. Format: functional.
For data set [11], the system named is Cavia porcellus. The data set is described as follows: Effective dose was reported after intravenous administration to guinea pig. Format: functional.
The target in data set [12] is Histamine H3 receptor (Cavia porcellus) (UniProt Q9JI35). Nature of the data set: Compound was evaluated for its binding affinity against Histamine H3 receptor of guinea pig brain membrane, less then 50% inhibition when screened at 1 ug/mL.
For data set [13] the target is unchanged. Nature of the data set: Compound was evaluated for its binding affinity against Histamine H3 receptor of guinea pig brain membrane less then 50% inhibition when screened at 1 ug/mL.
Data set [14] shares this target. Described as §1. Conditions: concentration not given here.

Histamine H3 receptor (Cavia porcellus), sequence (Q9JI35 whole entry): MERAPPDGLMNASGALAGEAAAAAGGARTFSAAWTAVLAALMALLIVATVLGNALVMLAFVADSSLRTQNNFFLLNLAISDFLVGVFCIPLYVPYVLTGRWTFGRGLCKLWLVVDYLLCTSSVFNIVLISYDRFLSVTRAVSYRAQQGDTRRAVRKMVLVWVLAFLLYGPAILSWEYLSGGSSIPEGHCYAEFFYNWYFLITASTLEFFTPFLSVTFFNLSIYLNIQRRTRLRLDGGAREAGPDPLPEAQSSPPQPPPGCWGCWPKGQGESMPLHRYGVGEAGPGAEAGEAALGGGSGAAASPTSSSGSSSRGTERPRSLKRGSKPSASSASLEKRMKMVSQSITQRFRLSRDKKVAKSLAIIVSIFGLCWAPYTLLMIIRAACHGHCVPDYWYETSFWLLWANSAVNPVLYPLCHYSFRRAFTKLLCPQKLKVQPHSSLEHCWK
Histamine H3 receptor, sequence (Q9JI35 whole entry): as above

For orientation: Ki means the dissociation constant of the complex between target and ligand, obtained from inhibition or displacement. With `O=C(Nc1ccccc1)OCc1ccc(Cc2c[nH]cn2)cc1`, affinity in data set [1] was put at a Ki of 37 nM. The same measure, in the same setting: next, `O=C(NCCc1ccccc1Cl)NCc1ccc(Cc2c[nH]cn2)cc1`: 430 nM; `O=C(Nc1ccc(Cl)cc1)OCc1ccc(Cc2c[nH]cn2)cc1`: 25 nM.

For orientation: inhibition means the share of the control response that was lost under treatment. `O=C(Nc1ccc(Cc2c[nH]cn2)cc1)Nc1cc(Cl)cc(Cl)c1` displayed an inhibition in data set [2] of 36%. Usually AUC stands for the area under the concentration-time curve, a measure of exposure. In general, half-life refers to how long it takes for the measured level to halve. As to `O=C(NCc1ccc(Cc2c[nH]cn2)cc1)Nc1cc(Cl)cc(Cl)c1`, the Cmax in [3] and in data set [9] was 1700 ng/mL in each case. Also, the exposure (AUC) in data set [4] came to 18100 ng·h/mL; in data set [5], 12600 ng·h/mL. In data set [6], the half-life is 4.4 h. Moreover, the results for the Concentration in data set [7] and in data set [10] were 207 nM and 805 nM, respectively. In addition, in data set [8], the bioavailability is 44%. The term ED50 denotes the dose that gives a 50% effect, or the effect in half of the subjects. Consider `N=C(NCc1ccc(Cl)cc1)c1ccc(Cc2c[nH]cn2)cc1`, for which the median effective dose (ED50) in data set [11] is 0.3 mg/kg. Compound `O=C(NCc1cccc(Cc2c[nH]cn2)c1)Nc1cc(Cl)cc(Cl)c1` returned an inhibition in data set [2] of 33%. The compound `NC(=O)NCc1ccc(Cc2c[nH]cn2)cc1` came in with an inhibition in [12] of less than 50%. On to `O=C(NCc1ccccc1)NCc1ccc(Cc2c[nH]cn2)cc1`, for which the inhibition in [13] is less than 50%.

For the compound `O=C(NCc1ccc(Cc2c[nH]cn2)cc1)Nc1cccnc1`, in [1], affinity was put at a Ki of 270 nM. On the same count and under the same terms, to `CN(Cc1ccc(Cc2cnc[nH]2)cc1)C(=O)N(C)c1cc(Cl)cc(Cl)c1` belongs 370 nM; to `O=C(NCc1ccc(Cc2c[nH]cn2)cc1)NCc1cc(C(F)(F)F)cc(C(F)(F)F)c1`, 90 nM; to `O=C(NCc1ccc(Cc2c[nH]cn2)cc1)Nc1cc(Cl)nc(Cl)c1`, 3 nM. For the compound `O=C(NCc1ccc(Cc2c[nH]cn2)cc1)Nc1cnccn1`, the inhibition in data set [14] was less than 50%.

The values above are taken from ChEMBL document CHEMBL1135250, “Identification of a novel, orally bioavailable histamine H(3) receptor antagonist based on the 4-benzyl-(1H-imidazol-4-yl) template” (Bioorg Med Chem Lett, 2002).
